Measurements reported in ChEMBL document CHEMBL1833864, “N'-(arylsulfonyl)pyrazoline-1-carboxamidines as novel, neutral 5-hydroxytryptamine 6 receptor (5-HT₆R) antagonists with unique structural features” (J Med Chem, 2011).

Tests used:
Cavia porcellus [1] = assay: Cardiotoxicity in telemetered conscious freely moving Dunkin-Hartley guinea pig assessed as prolongation of electrocardiographic QTc interval at 10 mg/kg, po measured up to 120 mins; type: toxicity, organism-based; parameters: dose 10 mg/kg, route oral; conditions: in vivo, 2 h
[2] = molecular target: 5-hydroxytryptamine receptor 3A (Homo sapiens, UniProt P46098); assay: Inhibition of human 5-HT3 receptor
[3] = Plasma protein binding in human at 5 uM by LC/MS/MS analysis; type: ADME, cell-free; conditions: read-out: PPB (converted)
[4] = molecular target: Muscarinic acetylcholine receptor M4 (Homo sapiens, UniProt P08173); assay: Inhibition of human muscarinic M4 receptor
[5] = molecular target: Voltage-gated inwardly rectifying potassium channel KCNH2 (Homo sapiens, UniProt Q12809)
[6] = molecular target: Muscarinic acetylcholine receptor M1 (Homo sapiens, UniProt P11229); assay: Inhibition of human muscarinic M1 receptor
in vitro [7] = conditions: human, hepatocytes
[8] = Inhibition of human sigma receptor
LLC-PK1 = conditions: pig
Description: Permeability across pig LLC-PK1 cell line overexpressing human MDR1 at 3 hrs by LC/MS analysis

[9] = molecular target: Muscarinic acetylcholine receptor M2 (Homo sapiens, UniProt P08172); assay: Inhibition of human muscarinic M2 receptor
[10] = Plasma protein binding in rat at 5 uM by LC/MS/MS analysis; type: ADME, cell-free; conditions: read-out: PPB (converted)
[11] = molecular target: Muscarinic acetylcholine receptor M5 (Homo sapiens, UniProt P08912); assay: Inhibition of human muscarinic M5 receptor
[12] = molecular target: Muscarinic acetylcholine receptor M3 (Homo sapiens, UniProt P20309); assay: Inhibition of human muscarinic M3 receptor
[13] = molecular target: T1, 5-hydroxytryptamine receptor 1A (Homo sapiens, UniProt P08908); assay: Inhibition of human 5-HT1A receptor
T1 sequence (P08908 whole entry): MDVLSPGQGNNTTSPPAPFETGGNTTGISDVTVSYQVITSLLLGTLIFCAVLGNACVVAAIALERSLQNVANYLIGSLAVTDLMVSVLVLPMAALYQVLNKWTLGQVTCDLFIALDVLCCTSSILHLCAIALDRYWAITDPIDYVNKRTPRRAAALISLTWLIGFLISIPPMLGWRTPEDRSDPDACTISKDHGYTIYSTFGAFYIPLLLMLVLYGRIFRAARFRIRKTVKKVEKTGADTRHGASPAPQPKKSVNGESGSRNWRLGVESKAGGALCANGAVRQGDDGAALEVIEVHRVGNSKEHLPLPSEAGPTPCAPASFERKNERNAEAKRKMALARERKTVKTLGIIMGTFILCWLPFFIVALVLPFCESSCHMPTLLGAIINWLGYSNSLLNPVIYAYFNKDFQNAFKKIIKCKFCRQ

[14] = molecular target: 5-hydroxytryptamine receptor 1D (Homo sapiens, UniProt P28221); assay: Inhibition of human 5-HT1D receptor
in vitro [15] = conditions: Sprague-Dawley, rat, hepatocytes
Cavia porcellus [16] = assay: Cardiotoxicity in telemetered conscious freely moving Dunkin-Hartley guinea pig assessed as prolongation of electrocardiographic QTc interval at 50 mg/kg, po measured up to 120 mins; type: toxicity, organism-based; parameters: dose 50 mg/kg, route oral; conditions: in vivo, 2 h
[17] = molecular target: 5-hydroxytryptamine receptor 6 (Homo sapiens, UniProt P50406); assay: Displacement of [3H]-methyllysergic acid diethylamide from human 5-HT6 receptor expressed in CHO cells after 30 mins by liquid scintillation counting; type: cell-based
[18] = molecular target: 5-hydroxytryptamine receptor 2C (Homo sapiens, UniProt P28335); assay: Inhibition of human 5-HT2C receptor
[19] = molecular target: 5-hydroxytryptamine receptor 7 (Homo sapiens, UniProt P34969); assay: Inhibition of human 5-HT7 receptor
[20] = molecular target: 5-hydroxytryptamine receptor 2A (Homo sapiens, UniProt P28223); assay: Inhibition of human 5-HT2A receptor
D(2) dopamine receptor = D(2) dopamine receptor (Homo sapiens, UniProt P14416); assay: Inhibition of human dopamine D2 receptor
Cytochrome P450 2C19 = Cytochrome P450 2C19 (Homo sapiens, UniProt P33261); assay: Inhibition of CYP 2C19; type: ADME
[21] = Half life in Wistar rat plasma at 10 mg/kg, po; type: ADME, organism-based; parameters: dose 10 mg/kg, route oral
Cavia porcellus [22] = assay: Cardiotoxicity in telemetered conscious freely moving Dunkin-Hartley guinea pig assessed as prolongation of electrocardiographic QTc interval at 100 mg/kg, sc administered for 120 mins; type: toxicity, organism-based; parameters: dose 100 mg/kg, route subcutaneous; conditions: in vivo, 2 h
[23] = Ratio of drug level in brain to plasma in Wistar rat at 10 mg/kg, po; type: ADME, organism-based; parameters: dose 10 mg/kg, route oral; conditions: brain and plasma
[24] = Fraction unbound in rat brain homogenate at 1 uM after 6 hrs by […]; type: ADME, tissue-based
[25] = Tmax in Wistar rat; type: ADME, organism-based; conditions: in vivo
Cytochrome P450 1A2 = Cytochrome P450 1A2 (Homo sapiens, UniProt P05177); assay: Inhibition of CYP 1A2; type: ADME
[26] = Oral bioavailability in Wistar rat at 10 mg/kg; type: ADME, organism-based; conditions: in vivo
Cytochrome P450 3A4 = Cytochrome P450 3A4 (Homo sapiens, UniProt P08684); assay: Inhibition of CYP 3A4; type: ADME
[27] = Half life in Wistar rat plasma at 1 mg/kg, iv; type: ADME, organism-based; parameters: dose 1 mg/kg, route intravenous
Cytochrome P450 2D6 = Cytochrome P450 2D6 (Homo sapiens, UniProt P10635); assay: Inhibition of CYP 2D6; type: ADME
Cytochrome P450 2C9 = Cytochrome P450 2C9 (Homo sapiens, UniProt P11712); assay: Inhibition of CYP 2C9; type: ADME
[28] = molecular target: 5-hydroxytryptamine receptor 2B (Homo sapiens, UniProt P41595); assay: Inhibition of human 5-HT2B receptor
[29] = Bioavailability in Wistar rat at 10 mg/kg, ip; type: ADME, organism-based; conditions: in vivo

Voltage-gated inwardly rectifying potassium channel KCNH2, sequence (Q12809 whole entry): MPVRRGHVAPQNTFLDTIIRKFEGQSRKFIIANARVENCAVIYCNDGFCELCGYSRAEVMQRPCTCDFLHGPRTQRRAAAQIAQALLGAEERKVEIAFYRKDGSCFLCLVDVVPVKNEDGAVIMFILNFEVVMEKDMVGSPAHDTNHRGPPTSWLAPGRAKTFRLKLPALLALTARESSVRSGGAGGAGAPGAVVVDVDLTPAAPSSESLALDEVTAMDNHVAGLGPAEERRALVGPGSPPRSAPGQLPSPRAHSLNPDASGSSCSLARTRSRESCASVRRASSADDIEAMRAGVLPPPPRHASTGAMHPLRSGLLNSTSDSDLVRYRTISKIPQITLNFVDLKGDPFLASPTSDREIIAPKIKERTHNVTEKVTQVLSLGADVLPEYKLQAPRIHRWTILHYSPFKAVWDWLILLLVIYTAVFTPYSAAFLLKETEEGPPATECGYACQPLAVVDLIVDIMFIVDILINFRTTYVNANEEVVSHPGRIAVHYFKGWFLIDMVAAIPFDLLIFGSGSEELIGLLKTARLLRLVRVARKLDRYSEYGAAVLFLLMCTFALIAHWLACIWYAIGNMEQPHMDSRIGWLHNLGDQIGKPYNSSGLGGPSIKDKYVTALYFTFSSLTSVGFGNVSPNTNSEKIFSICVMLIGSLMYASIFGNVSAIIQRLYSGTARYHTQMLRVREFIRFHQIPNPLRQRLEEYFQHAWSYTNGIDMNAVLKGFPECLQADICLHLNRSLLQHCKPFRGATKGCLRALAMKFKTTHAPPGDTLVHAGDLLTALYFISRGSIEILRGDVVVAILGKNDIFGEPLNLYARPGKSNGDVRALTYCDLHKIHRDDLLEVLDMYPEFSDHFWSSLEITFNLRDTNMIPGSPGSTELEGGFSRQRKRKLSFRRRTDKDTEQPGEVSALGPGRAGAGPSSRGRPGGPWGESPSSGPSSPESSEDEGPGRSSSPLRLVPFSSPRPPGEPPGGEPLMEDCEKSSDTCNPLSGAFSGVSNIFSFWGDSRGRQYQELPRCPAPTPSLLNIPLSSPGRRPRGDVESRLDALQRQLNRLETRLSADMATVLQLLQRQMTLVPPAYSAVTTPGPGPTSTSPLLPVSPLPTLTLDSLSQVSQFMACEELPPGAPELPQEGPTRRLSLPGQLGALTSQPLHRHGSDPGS
5-hydroxytryptamine receptor 6, sequence (P50406 whole entry): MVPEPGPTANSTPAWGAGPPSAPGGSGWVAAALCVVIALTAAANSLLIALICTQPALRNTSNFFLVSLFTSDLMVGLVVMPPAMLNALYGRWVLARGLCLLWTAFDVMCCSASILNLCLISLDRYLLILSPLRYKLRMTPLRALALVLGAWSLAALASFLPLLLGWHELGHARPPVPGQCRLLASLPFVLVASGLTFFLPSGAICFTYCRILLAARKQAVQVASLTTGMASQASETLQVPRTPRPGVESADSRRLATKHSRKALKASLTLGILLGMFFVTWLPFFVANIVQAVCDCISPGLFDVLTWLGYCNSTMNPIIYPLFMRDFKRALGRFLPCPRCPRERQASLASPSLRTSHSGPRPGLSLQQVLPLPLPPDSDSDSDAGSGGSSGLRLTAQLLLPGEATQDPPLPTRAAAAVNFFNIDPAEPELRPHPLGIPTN
5-hydroxytryptamine receptor 1D, sequence (P28221 whole entry): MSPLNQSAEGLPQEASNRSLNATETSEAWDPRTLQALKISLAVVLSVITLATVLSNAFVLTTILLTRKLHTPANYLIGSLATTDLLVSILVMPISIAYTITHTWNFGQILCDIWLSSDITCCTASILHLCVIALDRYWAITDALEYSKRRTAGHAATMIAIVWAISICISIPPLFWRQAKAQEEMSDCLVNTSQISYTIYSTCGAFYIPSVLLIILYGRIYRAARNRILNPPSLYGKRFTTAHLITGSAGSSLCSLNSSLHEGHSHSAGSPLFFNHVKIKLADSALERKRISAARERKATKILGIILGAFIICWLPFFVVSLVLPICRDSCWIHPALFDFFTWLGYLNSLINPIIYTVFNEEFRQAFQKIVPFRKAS
5-hydroxytryptamine receptor 2A, sequence (P28223 whole entry): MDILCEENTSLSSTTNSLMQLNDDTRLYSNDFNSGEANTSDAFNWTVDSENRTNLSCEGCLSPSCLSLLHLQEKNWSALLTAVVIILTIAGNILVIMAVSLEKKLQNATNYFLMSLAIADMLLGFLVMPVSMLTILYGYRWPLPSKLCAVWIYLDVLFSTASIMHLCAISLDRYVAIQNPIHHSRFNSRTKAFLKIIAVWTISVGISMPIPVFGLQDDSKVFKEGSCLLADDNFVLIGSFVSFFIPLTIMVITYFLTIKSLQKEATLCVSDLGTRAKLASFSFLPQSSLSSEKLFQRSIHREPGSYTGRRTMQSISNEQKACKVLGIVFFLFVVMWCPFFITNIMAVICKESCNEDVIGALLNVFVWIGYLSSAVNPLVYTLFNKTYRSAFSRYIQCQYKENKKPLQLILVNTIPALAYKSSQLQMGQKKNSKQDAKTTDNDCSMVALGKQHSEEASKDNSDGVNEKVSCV
5-hydroxytryptamine receptor 7, sequence (P34969 whole entry): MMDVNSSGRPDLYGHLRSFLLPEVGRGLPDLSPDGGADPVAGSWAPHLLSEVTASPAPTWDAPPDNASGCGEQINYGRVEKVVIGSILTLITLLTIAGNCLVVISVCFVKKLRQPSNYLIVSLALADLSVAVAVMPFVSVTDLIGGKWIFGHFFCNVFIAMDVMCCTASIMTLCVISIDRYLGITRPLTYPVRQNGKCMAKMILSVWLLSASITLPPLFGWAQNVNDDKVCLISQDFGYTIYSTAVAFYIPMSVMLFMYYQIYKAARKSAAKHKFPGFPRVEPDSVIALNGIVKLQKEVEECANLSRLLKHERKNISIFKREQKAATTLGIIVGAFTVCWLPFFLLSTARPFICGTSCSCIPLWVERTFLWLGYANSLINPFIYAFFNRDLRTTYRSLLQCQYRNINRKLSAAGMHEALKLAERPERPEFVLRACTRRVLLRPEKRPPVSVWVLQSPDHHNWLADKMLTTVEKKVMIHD
5-hydroxytryptamine receptor 2C, sequence (P28335 whole entry): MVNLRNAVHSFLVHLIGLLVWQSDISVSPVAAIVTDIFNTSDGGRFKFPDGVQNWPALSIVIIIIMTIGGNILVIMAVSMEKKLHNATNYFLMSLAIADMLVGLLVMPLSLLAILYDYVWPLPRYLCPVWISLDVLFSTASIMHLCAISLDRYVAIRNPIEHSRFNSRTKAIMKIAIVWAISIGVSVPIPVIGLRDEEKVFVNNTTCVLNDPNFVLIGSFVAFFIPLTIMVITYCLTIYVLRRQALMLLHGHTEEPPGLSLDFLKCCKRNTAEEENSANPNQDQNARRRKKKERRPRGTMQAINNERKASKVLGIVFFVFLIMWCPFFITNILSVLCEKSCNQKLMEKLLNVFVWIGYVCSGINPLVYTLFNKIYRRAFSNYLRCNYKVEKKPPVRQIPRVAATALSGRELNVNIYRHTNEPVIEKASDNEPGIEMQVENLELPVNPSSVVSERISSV
D(2) dopamine receptor, sequence (P14416 whole entry): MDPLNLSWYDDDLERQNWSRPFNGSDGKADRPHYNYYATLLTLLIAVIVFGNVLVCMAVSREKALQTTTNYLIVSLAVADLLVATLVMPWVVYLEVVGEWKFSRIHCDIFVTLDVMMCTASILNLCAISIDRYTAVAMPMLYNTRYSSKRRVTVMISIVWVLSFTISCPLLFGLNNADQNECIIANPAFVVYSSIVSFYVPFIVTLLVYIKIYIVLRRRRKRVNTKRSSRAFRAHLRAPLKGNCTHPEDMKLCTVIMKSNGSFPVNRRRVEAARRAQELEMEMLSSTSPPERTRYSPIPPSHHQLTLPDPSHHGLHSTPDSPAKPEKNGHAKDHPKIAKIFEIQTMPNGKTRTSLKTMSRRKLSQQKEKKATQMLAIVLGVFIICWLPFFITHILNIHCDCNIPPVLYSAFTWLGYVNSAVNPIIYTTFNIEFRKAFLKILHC
Cytochrome P450 2C9, sequence (P11712 whole entry): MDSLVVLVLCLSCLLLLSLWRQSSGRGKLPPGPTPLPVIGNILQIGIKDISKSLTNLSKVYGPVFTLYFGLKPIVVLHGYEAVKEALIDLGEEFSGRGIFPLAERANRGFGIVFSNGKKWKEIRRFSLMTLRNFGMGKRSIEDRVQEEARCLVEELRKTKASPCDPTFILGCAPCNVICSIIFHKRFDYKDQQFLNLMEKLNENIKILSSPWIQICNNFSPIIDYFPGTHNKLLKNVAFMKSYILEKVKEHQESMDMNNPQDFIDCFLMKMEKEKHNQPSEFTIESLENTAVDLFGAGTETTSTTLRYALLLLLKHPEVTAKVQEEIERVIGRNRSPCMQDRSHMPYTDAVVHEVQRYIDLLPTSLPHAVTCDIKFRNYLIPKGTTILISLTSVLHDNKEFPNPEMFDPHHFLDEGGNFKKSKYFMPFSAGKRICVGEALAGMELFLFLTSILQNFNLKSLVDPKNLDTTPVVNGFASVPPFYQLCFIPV
Muscarinic acetylcholine receptor M2, sequence (P08172 whole entry): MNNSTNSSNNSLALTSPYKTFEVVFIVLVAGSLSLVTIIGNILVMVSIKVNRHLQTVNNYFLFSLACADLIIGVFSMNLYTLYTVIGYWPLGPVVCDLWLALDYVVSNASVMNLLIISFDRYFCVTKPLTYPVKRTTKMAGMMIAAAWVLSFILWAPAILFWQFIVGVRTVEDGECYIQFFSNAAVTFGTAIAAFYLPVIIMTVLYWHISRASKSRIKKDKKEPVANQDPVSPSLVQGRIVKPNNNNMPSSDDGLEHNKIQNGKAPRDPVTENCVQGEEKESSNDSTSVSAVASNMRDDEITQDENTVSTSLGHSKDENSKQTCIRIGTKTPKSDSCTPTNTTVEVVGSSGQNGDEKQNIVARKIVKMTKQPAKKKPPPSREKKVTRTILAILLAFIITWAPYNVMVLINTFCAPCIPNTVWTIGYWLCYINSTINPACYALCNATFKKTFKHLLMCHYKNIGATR

| SMILES | hepatocyte CLint at 1 ug/mL (in vitro [7]) [µL/min/1e6 cells] | hepatocyte CLint at 1 ug/mL (in vitro [15]) [µL/min/1e6 cells] | Ki [17] [nM] | further results |
| --- | --- | --- | --- | --- |
| CCN/C(=N\S(=O)(=O)c1cccc(Cl)c1)N1CC2(C=N1)CCNCC2 | 3 | 25 |  | Activity (Cavia porcellus [1]): Non-toxic; Ki [2]: 10000 nM; fraction unbound at 5 µM [3]: 0.34; Ki [4]: 10000 nM; IC50 [5]: 7940 nM; Ki [6]: 10000 nM; pKi [8]: 5; permeability (LLC-PK1; llc-pk1, 3 h): 14.7%; Ki [9]: 10000 nM; fraction unbound at 5 µM [10]: 0.41; Ki [11]: 10000 nM; Ki [12]: 10000 nM; Ki ([13]; read-out: pKi (converted)): 10000 nM; Ki ([14]; read-out: pKi (converted)): 10000 nM; Activity (Cavia porcellus [16]): Toxic |
| CCC1C=NN(/C(=N/S(=O)(=O)c2ccccc2Cl)Nc2ccccc2)C1 (stereo unspecified) |  |  | > 1000 |  |
| CCN/C(=N\S(=O)(=O)c1ccc(Cl)c(Cl)c1)N1CC(CC)C=N1 (stereo unspecified) | 92 | 198 | 7.9 |  |
| CCN/C(=N\S(=O)(=O)c1cccc(OC)c1)N1CC(CC)C=N1 (stereo unspecified) | 46 | 92 | 26.6 |  |
| CCN/C(=N\S(=O)(=O)c1cccc(C)c1)N1CC(CC)C=N1 (stereo unspecified) | 51 | 116 | 27.4 |  |
| CCN=C(NS(=O)(=O)c1cccc(Cl)c1)N1CC(CF)(CF)C=N1 |  |  | 92 |  |
| CCN/C(=N\S(=O)(=O)c1cc(Cl)ccc1Cl)N1CC(CC)C=N1 (stereo unspecified) |  | 116 | 119 |  |
| CCC1C=NN(/C(=N/S(=O)(=O)c2ccccc2Cl)NCc2ccccc2)C1 (stereo unspecified) |  |  | 92 |  |
| CCN=C(NS(=O)(=O)c1cccc(Cl)c1)N1N=CC[C@H]1c1ccccc1 | 107 | 116 |  |  |
| CCN=C(NS(=O)(=O)c1cccc(Cl)c1)N1N=CC[C@@H]1c1ccccc1 |  | 107 |  |  |
| CCC1C=NN(/C(N)=N/S(=O)(=O)c2cccc(Cl)c2)C1 (stereo unspecified) |  |  | 24.2 |  |
| CCN/C(=N\S(=O)(=O)c1cccc(Cl)c1)N1N=CCC1c1ccco1 (racemic) | 92 | 198 | 8.2 |  |
| CCN/C(=N\S(=O)(=O)c1cccc(Cl)c1)N1CCC=N1 |  |  | 33.9 |  |
| CCN/C(=N\S(=O)(=O)c1cccc(Cl)c1)N1CC(CC)(CC)C=N1 |  |  | 49.9 |  |
| CCC1C=NN(/C(=N/S(=O)(=O)c2cccc(Cl)c2)NC)C1 (stereo unspecified) |  |  | 17.8 |  |
| CCN/C(=N\S(=O)(=O)c1cccc(Cl)c1)N1CC2(C=N1)CCCC2 |  |  | 6.4 |  |
| CCN/C(=N\S(=O)(=O)c1ccc(S(C)(=O)=O)cc1)N1CC(CC)C=N1 (stereo unspecified) | 4 | 20 |  |  |
| CCN/C(=N\S(=O)(=O)c1c(Cl)cccc1Cl)N1CC(CC)C=N1 (stereo unspecified) |  | 126 | 197 |  |
| CCN=C(NS(=O)(=O)c1cccc(Cl)c1)N1N=CCC1c1ccc(F)cc1 (racemic) | 107 | 126 | 138 |  |

| SMILES | hepatocyte CLint at 1 ug/mL (in vitro [7]) [µL/min/1e6 cells] | hepatocyte CLint at 1 ug/mL (in vitro [15]) [µL/min/1e6 cells] | Ki [17] [nM] | further results |
| --- | --- | --- | --- | --- |
| CCC1C=NN(/C(=N/S(=O)(=O)c2ccccc2Cl)NC(C)C)C1 (stereo unspecified) |  |  | > 1000 |  |
| CCN/C(=N\S(=O)(=O)c1ccc2ccccc2c1)N1CC(CC)C=N1 (stereo unspecified) | 41 | 139 | 17.2 |  |
| CCN/C(=N\S(=O)(=O)c1cccc(Cl)c1F)N1CC(CC)C=N1 (stereo unspecified) | 36 | 116 | 2.7 |  |
| CCCN/C(=N\S(=O)(=O)c1cccc(Cl)c1)N1CC(CC)C=N1 (stereo unspecified) |  |  | 14.6 |  |
| CCN/C(=N\S(=O)(=O)c1cccc(Cl)c1)N1CC(C)C=N1 (stereo unspecified) |  |  | 8 |  |
| CCN/C(=N\S(=O)(=O)c1cccc(Cl)c1)N1N=CCC1c1ccncc1 (racemic) | 50 | 87 | 322 |  |
| CCN/C(=N\S(=O)(=O)c1cccc(Cl)c1)N1CC(CC)C=N1 (racemic) |  |  |  | Ki [18]: > 1000 nM; Ki [19]: > 1000 nM; Ki ([13]; read-out: Ki): > 1000 nM; Ki ([14]; read-out: Ki): > 1000 nM; Ki [20]: > 1000 nM; Ki (D(2) dopamine receptor): > 1000 nM |
| CCNC(=N[S+]([O-])c1sc2ccc(Cl)cc2c1C)N1CC(CC)C=N1 (stereo unspecified) |  |  | 8.5 |  |
| CCN/C(=N\S(=O)(=O)c1cccc(Cl)c1)N1CCC(C)=N1 |  |  | 231 |  |
| CCC1C=NN(/C(=N/S(=O)(=O)c2cccc(Cl)c2)N(C)C)C1 (stereo unspecified) |  |  | > 1000 |  |
| CCN/C(=N\S(=O)(=O)c1ccccc1Cl)N1CC(CC)C=N1 (stereo unspecified) | 39 | 99 | 27.8 |  |
| CCN/C(=N\S(=O)(=O)c1c(Cl)nc2sccn12)N1CC(CC)C=N1 (stereo unspecified) | 20 | 116 | 7.9 |  |
| CCN/C(=N\S(=O)(=O)c1c(C)nn(C)c1Cl)N1CC(CC)C=N1 (stereo unspecified) | 11 | 53 |  |  |
| CCN/C(=N\S(=O)(=O)c1cccc(Cl)c1)N1CC(C)(C)C=N1 |  |  | 24.1 | IC50 (Cytochrome P450 2C19): > 10000 nM; half-life [21]: 2 h; Activity (Cavia porcellus [22]): Non-toxic; Kp [23]: 1; fraction unbound at 6 h, 1 µM [24]: 0.01; Tmax [25]: 0.5 h; fraction unbound at 5 µM [3]: 0.37; IC50 (Cytochrome P450 1A2): > 10000 nM; bioavailability [26]: 7%; IC50 [5]: > 10000 nM; IC50 (Cytochrome P450 3A4): > 10000 nM; half-life [27]: 2 h; IC50 (Cytochrome P450 2D6): > 10000 nM; IC50 (Cytochrome P450 2C9): > 10000 nM; permeability (LLC-PK1; llc-pk1, 3 h): 41%; Ki [28]: 7940 nM; bioavailability [29]: 45% |
| CCN/C(=N\S(=O)(=O)c1cccc(C(F)(F)F)c1)N1CC(CC)C=N1 (stereo unspecified) | 27 | 116 | 17.9 |  |
| CCN/C(=N\S(=O)(=O)c1cccc(Cl)c1)N1CC2(C=N1)CCCCC2 |  |  | 5.2 |  |
| CCN/C(=N\S(=O)(=O)c1cccc(Cl)c1)N1N=CCC1c1ccccc1 (racemic) | 73 | 116 |  | Ki [18]: > 1000 nM; IC50 [5]: > 10000 nM; permeability (LLC-PK1; LLC-PK1, 3 h): 38.5%; Ki [19]: > 1000 nM; Ki ([13]; read-out: Ki): > 1000 nM; Ki ([14]; read-out: Ki): > 1000 nM; Ki [20]: > 1000 nM; Ki (D(2) dopamine receptor): > 1000 nM |
| CCN/C(=N\S(=O)(=O)c1ccccc1)N1CC(CC)C=N1 (stereo unspecified) |  |  | 33.9 |  |
